Laboratory results: PMC4363860 (Scientific Reports, 2015)
Read-outs that look alike come from different tables or passages of the source.

What was measured:
E. coli = experiment: MIC and reciprocal sensitization (Fig. 2a,b; Suppl. Figs S2, S3); assay type: cell-based, Escherichia coli
Klebsiella = experiment: MIC (Suppl. Figs S2, S3); assay type: cell-based
S. stanley 7308 = experiment: Chemo-sensitization (Suppl. Table S1); assay type: cell-based, Salmonella; details: for MIC: Salmonella enterica, 7308, read-out: MIC of rifampin in presence of C10KKc12K, S. stanley 7308
[1] = Pharmacokinetic study, plasma concentrations by LC-MS; assay type: in vivo; details: mice, oral 20 mg/Kg, N = 2 mice/time point, mean ± s.d.
Procedure: Drugs blood concentrations were determined by LC-MS using calibrated curves essentially as described[5][9]. […] At specified time intervals mice were euthanized (CO2 asphyxiation) and blood samples collected from vena cava (N = 2 mice/time point). For analysis, samples were centrifuged (2 min, 6000 × g), 200 μl plasma were mixed with 0.5 ml extraction buffer (50% acetonitrile (ACN): 50% methanol) incubated (30 min on plate shaker at 200 rpm, RT), centrifuged (2 min, 14000 × g) and 300 μl supernatant diluted twofold in DDW and analyzed by LC-MS (5 μl injected to Waters Xevo G2 Tof/ACQUITY UPLC H-Class system). Flow rate, 0.5 ml/min. Run time, 5 min. Mobile phase, ACN/DDW combination containing 0.1% formic acid using an ACQUITY UPLC BEH column (C18 1.7 μm) and eluted with a 0–90% ACN gradient. Quantification was by MS detection in positive ionization mode using an identical procedure that was performed in mouse whole blood in order to establish standard calibration curves.

K. pneumoniae = experiment: Efficacy, peritonitis-sepsis model in neutropenic mice; assay type: in vivo, Klebsiella pneumoniae; details: IP K. pneumoniae 3 × 10^7 CFU, rifampin oral 0.45 mg/mouse or OAK SC 0.3 mg/mouse, 2 experiments, 10 mice/group, vehicle 20 ± 10%
Procedure: Animal studies were performed using male ICR mice (weight range, 23 ± 2 g) obtained from Harlan Laboratories (Rehovot, Israel). Procedures, care and handling of animals were reviewed and approved by Technion Animal Care and Use Committee.
Mice were rendered neutropenic by intraperitoneal (IP) injection of cyclophosphamide (150 and 100 mg/Kg on days 0 and 3, respectively). The procedure was confirmed to result in severe neutropenia by day 4, at which time infection was induced. The peritonitis-sepsis model was used whereby infection was obtained after IP injection of a logarithmic-phase culture of K. pneumoniae (3 × 10^7 CFU/mice in 0.3 ml PBS). […] Mice survival was monitored for up to 7 days post-treatment. Survival data were obtained from 2 independent experiments (n = 10 mice/group/experiment). Statistical analysis was performed using a paired t test were α equals 0.05.

E. coli 35218 = experiment: Chemo-sensitization (Suppl. Table S1); details: for MIC: Escherichia coli, 35218, read-out: MIC of rifampin in presence of C10KKc12K, E. coli 35218
E. coli 14182 = experiment: Chemo-sensitization (Suppl. Table S1)
E. coli 16327 = experiment: Chemo-sensitization (Suppl. Table S1)
E. coli 16329 = experiment: Chemo-sensitization (Suppl. Table S1)
E. coli 14384 = experiment: Chemo-sensitization (Suppl. Table S1); details: for MIC: Escherichia coli, 14384, read-out: MIC of rifampin in presence of C10KKc12K, E. coli 14384
S. Typhimurium 14028 = experiment: Chemo-sensitization (Suppl. Table S1); details: for MIC: Salmonella enterica, TYPHIMURIUM
K. pneumoniae 1287 = experiment: Chemo-sensitization (Suppl. Table S1)

## CO[C@H]1/C=C/O[C@@]2(C)Oc3c(C)c(O)c4c(O)c(c(/C=N/N5CCN(C)CC5)c(O)c4c3C2=O)NC(=O)/C(C)=C\C=C\[C@H](C)[C@H](O)[C@@H](C)[C@@H](O)[C@@H](C)[C@H](OC(C)=O)[C@@H]1C [rifampin]
E. coli
  standalone antibiotic MIC: 16 µg/mL
Klebsiella
  standalone antibiotic MIC: 32 µg/mL
S. stanley 7308; S. stanley 7308
  SF, sensitization factor, rifampin with C10KKc12K: 2000
S. stanley 7308; OAK 0 µg/ml
  MIC: 16 µg/mL
S. stanley 7308; OAK 1.25 µg/ml
  MIC: 16 µg/mL
S. stanley 7308; OAK 2.5 µg/ml
  MIC: 0.125 µg/mL
S. stanley 7308; OAK 5 µg/ml
  MIC: 0.008 µg/mL
[1]
  plasma concentration reached after oral administration: 13260 ± 2250 ng/mL
K. pneumoniae
  survivors at day 7, single dose monotherapy: 10%
E. coli 35218; E. coli 35218
  SF, sensitization factor, rifampin with C10KKc12K: 258
E. coli 35218; OAK 0 µg/ml
  MIC: 8 µg/mL
E. coli 35218; OAK 1.25 µg/ml
  MIC: 0.5 µg/mL
E. coli 35218; OAK 5 µg/ml
  MIC: 0.031 µg/mL
E. coli 14182; E. coli 14182
  SF, sensitization factor, rifampin with C10KKc12K: 516
  SF, sensitization factor, rifampin with C12(ω7)KKc12K: > 800
E. coli 14182; Escherichia coli, 14182, read-out: MIC of rifampin in presence of C10KKc12K, E. coli 14182, OAK 0 µg/ml
  MIC: 16 µg/mL
E. coli 14182; Escherichia coli, 14182, read-out: MIC of rifampin in presence of C10KKc12K, E. coli 14182, OAK 1.25 µg/ml
  MIC: 4 µg/mL
E. coli 14182; Escherichia coli, 14182, read-out: MIC of rifampin in presence of C10KKc12K, E. coli 14182, OAK 2.5 µg/ml
  MIC: 0.125 µg/mL
E. coli 14182; Escherichia coli, 14182, read-out: MIC of rifampin in presence of C10KKc12K, E. coli 14182, OAK 5 µg/ml
  MIC: 0.031 µg/mL
E. coli 14182; Escherichia coli, 14182, read-out: MIC of rifampin in presence of C12(ω7)KKc12K, E. coli 14182, OAK 0 µg/ml
  MIC: 8 µg/mL
E. coli 14182; Escherichia coli, 14182, read-out: MIC of rifampin in presence of C12(ω7)KKc12K, E. coli 14182, OAK 1.25 µg/ml
  MIC: 8 µg/mL
E. coli 14182; Escherichia coli, 14182, read-out: MIC of rifampin in presence of C12(ω7)KKc12K, E. coli 14182, OAK 2.5 µg/ml
  MIC: 0.031 µg/mL
E. coli 14182; Escherichia coli, 14182, read-out: MIC of rifampin in presence of C12(ω7)KKc12K, E. coli 14182, OAK 5 µg/ml
  MIC: < 0.01 µg/mL
E. coli 16327; E. coli 16327
  SF, sensitization factor, rifampin with C10KKc12K: 2000
  SF, sensitization factor, rifampin with C12(ω7)KKc12K: > 3200
E. coli 16327; Escherichia coli, 16327, read-out: MIC of rifampin in presence of C10KKc12K, E. coli 16327, OAK 0 µg/ml
  MIC: 16 µg/mL
E. coli 16327; Escherichia coli, 16327, read-out: MIC of rifampin in presence of C10KKc12K, E. coli 16327, OAK 1.25 µg/ml
  MIC: 0.5 µg/mL
E. coli 16327; Escherichia coli, 16327, read-out: MIC of rifampin in presence of C10KKc12K, E. coli 16327, OAK 2.5 µg/ml
  MIC: 0.031 µg/mL
E. coli 16327; Escherichia coli, 16327, read-out: MIC of rifampin in presence of C10KKc12K, E. coli 16327, OAK 5 µg/ml
  MIC: 0.008 µg/mL
E. coli 16327; Escherichia coli, 16327, read-out: MIC of rifampin in presence of C12(ω7)KKc12K, E. coli 16327, OAK 0 µg/ml
  MIC: 16 to 32 µg/mL
E. coli 16327; Escherichia coli, 16327, read-out: MIC of rifampin in presence of C12(ω7)KKc12K, E. coli 16327, OAK 1.25 µg/ml
  MIC: 8 µg/mL
E. coli 16327; Escherichia coli, 16327, read-out: MIC of rifampin in presence of C12(ω7)KKc12K, E. coli 16327, OAK 2.5 µg/ml
  MIC: < 0.01 µg/mL
E. coli 16327; Escherichia coli, 16327, read-out: MIC of rifampin in presence of C12(ω7)KKc12K, E. coli 16327, OAK 5 µg/ml
  MIC: < 0.01 µg/mL
E. coli 16329; E. coli 16329
  SF, sensitization factor, rifampin with C10KKc12K: 2000
  SF, sensitization factor, rifampin with C12(ω7)KKc12K: 2000
E. coli 16329; Escherichia coli, 16329, read-out: MIC of rifampin in presence of C10KKc12K, E. coli 16329, OAK 0 µg/ml
  MIC: 16 µg/mL
E. coli 16329; Escherichia coli, 16329, read-out: MIC of rifampin in presence of C10KKc12K, E. coli 16329, OAK 1.25 µg/ml
  MIC: 0.5 µg/mL
E. coli 16329; Escherichia coli, 16329, read-out: MIC of rifampin in presence of C10KKc12K, E. coli 16329, OAK 5 µg/ml
  MIC: 0.008 µg/mL
E. coli 16329; Escherichia coli, 16329, read-out: MIC of rifampin in presence of C12(ω7)KKc12K, E. coli 16329, OAK 0 µg/ml
  MIC: 16 µg/mL
E. coli 16329; Escherichia coli, 16329, read-out: MIC of rifampin in presence of C12(ω7)KKc12K, E. coli 16329, OAK 1.25 µg/ml
  MIC: 8 µg/mL
E. coli 16329; Escherichia coli, 16329, read-out: MIC of rifampin in presence of C12(ω7)KKc12K, E. coli 16329, OAK 2.5 µg/ml
  MIC: 0.031 µg/mL
E. coli 16329; Escherichia coli, 16329, read-out: MIC of rifampin in presence of C12(ω7)KKc12K, E. coli 16329, OAK 5 µg/ml
  MIC: 0.008 µg/mL
E. coli 14384; E. coli 14384
  SF, sensitization factor, rifampin with C10KKc12K: 258
E. coli 14384; OAK 0 µg/ml
  MIC: 8 µg/mL
E. coli 14384; OAK 1.25 µg/ml
  MIC: 0.5 µg/mL
E. coli 14384; OAK 2.5 µg/ml
  MIC: 0.125 µg/mL
E. coli 14384; OAK 5 µg/ml
  MIC: 0.031 µg/mL
S. Typhimurium 14028; S. Typhimurium 14028
  SF, sensitization factor, rifampin with C10KKc12K: 2000
  SF, sensitization factor, rifampin with C12(ω7)KKc12K: 2667
S. Typhimurium 14028; read-out: MIC of rifampin in presence of C10KKc12K, S. Typhimurium 14028, OAK 0 µg/ml
  MIC: 16 µg/mL
S. Typhimurium 14028; read-out: MIC of rifampin in presence of C10KKc12K, S. Typhimurium 14028, OAK 1.25 µg/ml
  MIC: 8 µg/mL
S. Typhimurium 14028; read-out: MIC of rifampin in presence of C10KKc12K, S. Typhimurium 14028, OAK 5 µg/ml
  MIC: 0.008 µg/mL
S. Typhimurium 14028; read-out: MIC of rifampin in presence of C12(ω7)KKc12K, S. Typhimurium 14028, OAK 0 µg/ml
  MIC: 16 µg/mL
S. Typhimurium 14028; read-out: MIC of rifampin in presence of C12(ω7)KKc12K, S. Typhimurium 14028, OAK 1.25 µg/ml
  MIC: 8 µg/mL
S. Typhimurium 14028; read-out: MIC of rifampin in presence of C12(ω7)KKc12K, S. Typhimurium 14028, OAK 2.5 µg/ml
  MIC: 0.016 µg/mL
S. Typhimurium 14028; read-out: MIC of rifampin in presence of C12(ω7)KKc12K, S. Typhimurium 14028, OAK 5 µg/ml
  MIC: 0.006 µg/mL
K. pneumoniae 1287; K. pneumoniae 1287
  SF, sensitization factor, rifampin with C12(ω7)KKc12K: 5333
K. pneumoniae 1287; Klebsiella pneumoniae, 1287, read-out: MIC of rifampin in presence of C10KKc12K, K. pneumoniae 1287, OAK 1.25 µg/ml
  MIC: 8 µg/mL
K. pneumoniae 1287; Klebsiella pneumoniae, 1287, read-out: MIC of rifampin in presence of C10KKc12K, K. pneumoniae 1287, OAK 2.5 µg/ml
  MIC: 0.031 µg/mL
K. pneumoniae 1287; Klebsiella pneumoniae, 1287, read-out: MIC of rifampin in presence of C12(ω7)KKc12K, K. pneumoniae 1287, OAK 1.25 µg/ml
  MIC: 4 µg/mL
K. pneumoniae 1287; Klebsiella pneumoniae, 1287, read-out: MIC of rifampin in presence of C12(ω7)KKc12K, K. pneumoniae 1287, OAK 2.5 µg/ml
  MIC: 0.1 µg/mL
K. pneumoniae 1287; Klebsiella pneumoniae, 1287, read-out: MIC of rifampin in presence of C12(ω7)KKc12K, K. pneumoniae 1287, OAK 5 µg/ml
  MIC: 0.006 µg/mL
